# Measured values taken from patent publication US20020106416A1, “Composition for inhibition of H. influenzae and treatment of otitis media and sore throat” (priority 1996, published 2002).
# Experiment: Clinical evaluation of HHT888-10 in patients with otitis media or sore throat
# Format: in vivo, human
# Conditions: sixth patient; initial treatment with Erythromycin, Bactrium, and Naproxen together
# Protocol: The extract powder prepared in Example IB of Pogostemon cablin (HHT888-10) was administered orally to a patient with recurrent otitis media at a dosage of 2 g twice a day ( total 4 gms per day) for 3 days.
# A sixth patient was treated for sore throat, headache and fever. […] On the fifth day, the patient was treated with HHT888-10 at 2 g b.i.d. p.o. for 2 days.
Compound,fever and headache,sore throat
CC[C@H]1OC(=O)[C@H](C)[C@@H](O[C@H]2C[C@@](C)(OC)[C@@H](O)[C@H](C)O2)[C@H](C)[C@@H](O[C@@H]2O[C@H](C)C[C@H](N(C)C)[C@H]2O)[C@](C)(O)C[C@@H](C)C(=O)[C@H](C)[C@@H](O)[C@]1(C)O [Erythromycin],subsided,became worse
COc1ccc2cc([C@H](C)C(=O)O)ccc2c1 [Naproxen],subsided,became worse
Bactrium,subsided,became worse
